# Laboratory results: patent US20160151370A1, “Substituted Benzylpyrazoles” (BAYER PHARMA AKTIENGESELLSCHAFT, priority 2013, published 2016)
# Key:
# [1] = biological target: T1, catalytic domain of human Bub1 (amino acids 704-1085) (Homo sapiens, UniProt O43683); assay: Bub1 kinase assay (TR-FRET); type: biochemical; details: 10 μM ATP, 1 μM peptide substrate, median value, read-out: Biological Assay 1: Bub1 kinase assay median IC50
# T1 construct: catalytic domain of human Bub1 (amino acids 704-1085); His6 (N); made in house; host or cells: Hi5 insect cells
# Text: Bub1-inhibitory activities of compounds described in the present invention were quantified using a time-resolved fluorescence energy transfer (TR-FRET) kinase assay which measures phosphorylation of the synthetic peptide Biotin-Ahx-[…] (C-terminus in amide form), purchased from e.g. Biosyntan (Berlin, Germany) by the (recombinant) catalytic domain of human Bub1 (amino acids 704-1085), expressed in Hi5 insect cells with an N-terminal His6-tag and purified by affinity-(Ni-NTA) and size exclusion chromatography.
# In a typical assay 11 different concentrations of each compound (0.1 nM, 0.33 nM, 1.1 nM, 3.8 nM, 13 nM, 44 nM, 0.15 μM, 0.51 μM, 1.7 μM, 5.9 μM and 20 μM) were tested in duplicate within the same microtiter plate. To this end, 100-fold concentrated compound solutions (in DMSO) were previously prepared by serial dilution (1:3.4) of 2 mM stocks in a clear low volume 384-well source microtiter plate (Greiner Bio-One, Frickenhausen, Germany), from which 50 nL of compounds were transferred into a black low volume test microtiter plate from the same supplier. Subsequently, 2 μL of Bub1 (the final concentration of Bub1 was adjusted depending on the activity of the enzyme lot in order to be within the linear dynamic range of the assay: typically ˜200 ng/mL were used) in aqueous assay buffer [50 mM Tris/HCl pH 7.5, 10 mM magnesium chloride (MgCl2), 200 mM potassium chloride (KCl), 1.0 mM dithiothreitol (DTT), 0.1 mM sodium ortho-vanadate, 1% (v/v) glycerol, 0.01% (w/v) bovine serum albumine (BSA), 0.005% (v/v) Trition X-100 (Sigma), 1× Complete EDTA-free protease inhibitor mixture (Roche)] were added to the compounds in the test plate and the mixture was incubated for 15 min at 22° C. to allow pre-equilibration of the putative enzyme-inhibitor complexes before the start of the kinase reaction, which was initiated by the addition of 3 μL 1.67-fold concentrated solution (in assay buffer) of adenosine-tri-phosphate (ATP, 10 μM final concentration) and peptide substrate (1 μM final concentration). […] Subsequently, the amount of product was evaluated by measurement of the resonance energy transfer from the Eu-chelate-antibody complex recognizing the Phosphoserine residue to the streptavidin-XL665 bound to the biotin moiety of the peptide. To this end, the fluorescence emissions at 620 nm and 665 nm after excitation at 330-350 nm were measured in a TR-FRET plate reader, e.g. a Rubystar or Pherastar (both from BMG Labtechnologies, Offenburg, Germany) or a Viewlux (Perkin-Elmer) and the ratio of the emissions (665 nm/622 nm) was taken as indicator for the amount of phosphorylated substrate. […] IC50 values were calculated by fitting the normalized inhibition data to a 4-parameter logistic equation (Minimum, Maximum, IC50, Hill; Y=Max+(Min−Max)/(1+(X/IC50)Hill)).
# [2] = system: HeLa human cervical cancer cell line; assay: Proliferation assay (crystal violet staining); type: cell-based; details: 96 h, 4 days incubation, median value, read-out: Biological Assay 2: Proliferation assay (HeLa cell line) median IC50
# Method: Cultivated tumor cells (cells were ordered from ATCC) were plated at a density of 3000 cells/well in a 96-well multititer plate in 200 μL of growth medium supplemented 10% fetal calf serum. After 24 hours, the cells of one plate (zero-point plate) were stained with crystal violet (see below), while the medium of the other plates was replaced by fresh culture medium (200 μL), to which the test substances were added in various concentrations (0 μM, as well as in the range of 0.001-10 μM; the final concentration of the solvent dimethyl sulfoxide was 0.5%). The cells were incubated for 4 days in the presence of test substances. Cell proliferation was determined by staining the cells with crystal violet: the cells were fixed by adding 20 μL/measuring point of an 11% glutaric aldehyde solution for 15 minutes at room temperature. After three washing cycles of the fixed cells with water, the plates were dried at room temperature. The cells were stained by adding 100 μL/measuring point of a 0.1% crystal violet solution (pH 3.0). […] Absorbtion was determined by photometry at a wavelength of 595 nm. The change of cell number, in percent, was calculated by normalization of the measured values to the absorbtion values of the zero-point plate (=0%) and the absorbtion of the untreated (0 μm) cells (=100%). The IC50 values were determined by means of a 4 parameter fit.
# T1 sequence (O43683 704-1085): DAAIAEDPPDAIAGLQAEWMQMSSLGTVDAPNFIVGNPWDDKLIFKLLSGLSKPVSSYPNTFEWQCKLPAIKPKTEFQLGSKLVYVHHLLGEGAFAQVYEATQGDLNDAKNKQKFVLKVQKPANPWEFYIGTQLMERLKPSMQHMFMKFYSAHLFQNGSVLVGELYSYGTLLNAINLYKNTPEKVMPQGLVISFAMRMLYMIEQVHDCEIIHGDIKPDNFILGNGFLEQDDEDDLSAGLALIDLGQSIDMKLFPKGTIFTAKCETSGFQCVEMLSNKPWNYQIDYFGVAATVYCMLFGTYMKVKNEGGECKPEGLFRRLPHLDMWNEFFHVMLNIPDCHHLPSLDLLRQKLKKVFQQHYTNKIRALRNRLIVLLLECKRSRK
IC50 [1],IC50 [2],SMILES
5.7 nM,–,"CCOc1cc(F)c(Cn2nc(-c3ncc(OCCCS(C)(=N)=O)c(Nc4ccncc4)n3)c(C)c2C2CC2)c(F)c1 (single isomer, unassigned; (+)) [Example 2-2-3, (+)-2-[5-cyclopropyl-1-(4-ethoxy-2,6-difluorobenzyl)-4-methyl-1H-pyrazol-3-yl]-5-[3-(S-methylsulfonimidoyl)propoxy]-N-(pyridin-4-yl)pyrimidin-4-amine]"
8.4 nM,8200 nM,"CCOc1cc(F)c(Cn2nc(-c3ncc(OCCCS(C)(=N)=O)c(Nc4ccncc4)n3)c(C)c2C2CC2)c(F)c1 (racemic) [Example 2-2-1, 2-[5-cyclopropyl-1-(4-ethoxy-2,6-difluorobenzyl)-4-methyl-1H-pyrazol-3-yl]-5-[3-(S-methylsulfonimidoyl)propoxy]-N-(pyridin-4-yl)pyrimidin-4-amine]"
9.5 nM,–,"CCOc1cc(F)c(Cn2nc(-c3ncc(OCCCS(C)(=N)=O)c(Nc4ccncc4)n3)c(C)c2C2CC2)c(F)c1 (single isomer, unassigned; (-)) [Example 2-2-2, (−)-2-[5-cyclopropyl-1-(4-ethoxy-2,6-difluorobenzyl)-4-methyl-1H-pyrazol-3-yl]-5-[3-(S-methylsulfonimidoyl)propoxy]-N-(pyridin-4-yl)pyrimidin-4-amine]"
11 nM,–,"CCOc1cc(F)c(Cn2nc(-c3ncc(OCCCS(C)(=O)=NC(=O)C(F)(F)F)c(Nc4ccncc4)n3)c(C)c2C2CC2)c(F)c1 (centres unmarked) [Example 2-1-1, N-{[3-({2-[5-cyclopropyl-1-(4-ethoxy-2,6-difluorobenzyl)-4-methyl-1H-pyrazol-3-yl]-4-(pyridin-4-ylamino)pyrimidin-5-yl}oxy)propyl](methyl)oxido-λ^6-sulfanylidene}-2,2,2-trifluoroacetamide]"
